Laboratory results reported in PubChem BioAssay (NCI).
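Five concentrations, 48 hours, 96-well plates. Definition used: TGI = concentration required for complete inhibition of growth.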

Columns and labels:
Assay in all cases: NCI anticancer screen, dose series, 48 h
[1] = system: SF-268 CNS
[2] = system: PC-3 prostate
[3] = system: OVCAR-8 ovarian
[4] = system: SW-620 colon
[5] = system: MOLT-4 leukemia
[6] = system: HOP-62 NSCLC
[7] = system: HCT-15 colon
[8] = system: MCF7 breast
[9] = system: CCRF-CEM leukemia
[10] = system: SK-MEL-5 melanoma

Structure (SMILES)	TGI [1]	TGI [2]	TGI [3]	TGI [4]	TGI [5]	TGI [6]	TGI [7]	TGI [8]	TGI [9]	TGI [10]
CC(=O)O/C(=C(/C#N)C(=O)O)C1C(C(=O)O)C(c2ccccc2[N+](=O)[O-])C=C(c2ccco2)N1c1ccncc1 (stereo not given)	25.2 µM	18.4 µM	14.6 µM	3.57 µM	14.4 µM	21.6 µM	4.83 µM	4.38 µM	> 100 µM	7.24 µM
CC1(C)OC[C@@]2([C@@H]3CC[C@@H](C3)C2(C)C)N1O	> 100 µM	> 100 µM	> 100 µM	> 100 µM	> 100 µM	> 100 µM	> 100 µM	> 100 µM	> 100 µM	> 100 µM
Cc1cc2c(cc1Cl)Sc1nnc(C)n1S2(=O)=O	42.4 µM	37 µM	48.8 µM	35 µM	34.7 µM	57.9 µM	25.5 µM	18.1 µM	34.1 µM	27 µM
CCOC(=O)C1(Cc2ccccc2)CCN(C(=O)c2ccccc2)C2C1C2(Cl)Cl (stereo not given)	91.8 µM	50.1 µM	77.4 µM	> 100 µM	52.9 µM	87.2 µM	> 100 µM	71 µM	54.1 µM	29.5 µM
COc1ncc(C#CC(=O)c2ccccc2OC)c(OC)n1	12.2 µM	4.3 µM	5.05 µM	2.73 µM	1.61 µM	40.5 µM	2.08 µM	2.91 µM	1.58 µM	5.85 µM
Cc1ccc(NC(=S)NNC(=O)c2cc(-c3ccccc3)nc3ccccc23)cc1C	> 100 µM	42.9 µM	44.5 µM	> 100 µM	53.3 µM	54.8 µM	60.5 µM	47.8 µM	52 µM	34.4 µM
O=C(COC(=O)c1ccccc1)c1ccc(Br)cc1	34.4 µM	38.7 µM	> 100 µM	21.8 µM	15 µM	43.8 µM	35.1 µM	24.8 µM	25.9 µM	27.5 µM
CCOC(=O)c1cc2cc(CSc3ccccc3)ccc2oc1=O	> 100 µM	> 100 µM	> 100 µM	> 100 µM	> 100 µM	> 100 µM	> 100 µM	> 100 µM	> 100 µM	> 100 µM
Cn1c2c(c3ccccc31)CC(=O)N1CCCCC1C21OCCO1 (stereo not given)	> 100 µM	> 100 µM	> 100 µM	> 100 µM	> 100 µM	> 100 µM	> 100 µM	> 100 µM	> 100 µM	> 100 µM
O=C(NCCCCNCCCNC(=O)C(F)(F)F)C(F)(F)F	> 100 µM	> 100 µM	> 100 µM	> 100 µM	> 100 µM	> 100 µM	> 100 µM	> 100 µM	> 100 µM	> 100 µM
O=[N+]([O-])C(=C/C1CCCCC1)/C(=C\C1CCCCC1)[N+](=O)[O-]	14.7 µM	34.4 µM	> 27.3 µM	17.4 µM	> 26.1 µM	19.1 µM	3.76 µM	26.4 µM	17.7 µM	23.1 µM
C(/C=N/NC1=NCCN1)=N\NC1=NCCN1	> 100 µM	> 100 µM	> 100 µM	> 100 µM	> 100 µM	> 100 µM	> 100 µM	> 100 µM	> 100 µM	> 100 µM
CCO[C@H]1C[C@@H](c2ccccc2)[C@]2(C)C[C@H](C(=O)OC)ON2O1	> 100 µM	> 100 µM	> 100 µM	> 100 µM	> 100 µM	> 100 µM	> 100 µM	> 100 µM	> 100 µM	> 100 µM
C/C=C/[C@@H]1O[C@H](CC#C[Si](C)(C)C)[C@@]2(C=O)C(C)=CC[C@H](C(C)C)[C@@H]12	52.3 µM	33.8 µM	> 100 µM	59.5 µM	34.5 µM	82.7 µM	48.5 µM	63.1 µM	6.24 µM	35.2 µM
Cn1c2ccccc2n2c3ccccc3c(=S)c(C#N)c12	> 100 µM	> 100 µM	> 100 µM	> 100 µM	> 100 µM	> 100 µM	> 100 µM	> 100 µM	> 100 µM	> 100 µM
COC(=O)c1ccc(NCC2=CC(=O)c3ccccc3C2=O)cc1	66.2 µM	27.8 µM	> 100 µM	54.5 µM	> 29.1 µM	34.7 µM	33.1 µM	> 100 µM	> 100 µM	27.6 µM
CCOC(=O)NC(N(C)C(C(C)C)P(=O)(OCC)OCC)(C(F)(F)F)C(F)(F)F (stereo not given)	> 100 µM	> 100 µM	> 100 µM	> 100 µM	> 100 µM	> 100 µM	> 100 µM	> 100 µM	> 100 µM	> 100 µM
